Measured values published in patent US12698269B2, “1-aryltetrahydropyridazine-3,5-dione derivative or salt thereof and insecticidal agent containing the compound and method for using same” (NIHON NOHYAKU CO., LTD., priority 2022, dated 2026).

Experiments:
Format in all cases: in vivo
[1] = system: Diamondback moth (Plutella xylostella); test: Insecticidal test on diamondback moth, dip treatment of Chinese cabbage seedlings with laid eggs; conditions: 144 h, 6 days after treatment, read-out: insecticidal efficacy (corrected mortality rate) against diamondback moth
Text: Insecticidal Test on Diamondback moth (Plutella xylostella)
Adults of diamondback moth were released onto Chinese cabbage seedlings and allowed to lay eggs thereon. At 2 days after the release of the adults, the Chinese cabbage seedlings with laid eggs were dipped for about 30 seconds in agrochemical dispersions diluted to 50 ppm or 500 ppm, each of which contained a different compound represented by the general formula (1) of the present invention as an active ingredient. After air-dried, the seedlings were kept in a thermostatic chamber at 25° C. At 6 days after the dip treatment, the number of surviving larvae per plot was counted, the corrected mortality rate was calculated according to the formula shown below, and the insecticidal efficacy was evaluated according to the criteria shown below. This test was conducted in triplicate using 10 adults of diamondback moth per plot. Corrected mortality rate (%)=(Survival rate in a non-treatment plot−Survival rate in a treatment plot)/(Survival rate in a non-treatment plot)×100 [Expression 1] Criteria: • A: the mortality rate is 100%. • B: the mortality rate is 90 to 99%. • C: the mortality rate is 80 to 89%. • D: the mortality rate is 50 to 79%. • E: the mortality rate is 0 to 49%.

[2] = system: Small Brown Planthopper (Laodelphax striatellus); test: Insecticidal test on small brown planthopper, dip treatment of rice seedlings; conditions: 192 h, rice seedling dip, 8 days after inoculation, read-out: insecticidal efficacy (corrected mortality rate) against small brown planthopper
Text: Insecticidal Test on Small Brown Planthopper (Laodelphax striatellus)
The compounds represented by the general formula (1) of the present invention or salts thereof were separately dispersed in water and diluted to 50 ppm or 500 ppm. Rice plant seedlings (variety: Nihonbare) were dipped in the agrochemical dispersions for 30 seconds. After air-dried, each seedling was put into a separate glass test tube and inoculated with ten 3rd-instar larvae of small brown planthopper, and then the glass test tubes were capped with cotton plugs. At 8 days after the inoculation, the numbers of surviving larvae and dead larvae were counted, the corrected mortality rate was calculated according to the formula shown below, and the insecticidal efficacy was evaluated according to the criteria of Test Example 1. Corrected mortality rate (%)=(Survival rate in a non-treatment plot−Survival rate in a treatment plot)/(Survival rate in a non-treatment plot)×100 [Expression 2]

[3] = system: Western Flower thrips (Frankliniella occidentalis); test: Insecticidal test on western flower thrips, kidney bean leaf pieces; conditions: 96 h, 4 days after treatment, read-out: insecticidal efficacy (corrected mortality rate) against western flower thrips
Text: Insecticidal Test on Western Flower thrips (Frankliniella occidentalis)
Female adults of western flower thrips were inoculated onto kidney bean leaf pieces, and allowed to lay eggs thereon for one day, then the female adults were removed. After 3 days, the hatched larvae on the leaf pieces were counted, and then the agrochemical dispersions diluted to 50 ppm or 500 ppm, each of which contained the compound described in Tables 1 to 4 as an active ingredient were applied. The number of larvae of the species surviving at 4 days after the treatment was counted, and the corrected mortality rate was calculated according to the formula shown below, and the insecticidal efficacy was evaluated according to the criteria of Test Example 1. This test was conducted in duplicate. Corrected mortality rate (%)=(Survival rate in a non-treatment plot−Survival rate in a treatment plot)/(Survival rate in a non-treatment plot)×100 [Expression 3]

CSC(Nc1ccc(F)cc1)=C1C(=O)CN(c2ccc(C#N)nc2)N(C(=O)C2CC2)C1=O [Compound No. 1-44, (4EZ)-5-(2-(cyclopropanecarbonyl)-4-(((4-fluorophenyl)amino)(methylthio)methylene)-3,5-dioxo-tetrahydropyridazin-1(2H)-yl)picolinonitrile]
100%: mortality at 500 ppm [1] | mortality at 50 ppm [2] | mortality at 500 ppm [2] | mortality at 50 ppm [3] | mortality at 500 ppm [3]

CSC(Nc1ccc(F)cc1)=C1C(=O)CN(c2ccc(C(F)(F)F)nc2)N(C(=O)OC(C)(C)C)C1=O [Compound No. 1-63, tert-butyl (5EZ)-5-(((4-fluorophenyl)amino)(methylthio)methylene)-4,6-dioxo-2-[6-(trifluoromethyl)pyridin-3-yl]-tetrahydropyridazine-1(2H)-carboxylate]
100%: mortality at 50 ppm ([1]; 50 ppm) | mortality at 500 ppm [1] | mortality at 50 ppm [2] | mortality at 500 ppm [2] | mortality at 50 ppm [3] | mortality at 500 ppm [3]

CCCNC(=O)N1C(=O)C(=C(Nc2ccc(F)cc2)SC)C(=O)CN1c1ccc(C#N)nc1 [Compound No. 1-182, (5EZ)-2-(6-cyanopyridin-3-yl)-5-(((4-fluorophenyl)amino)(methylthio)methylene)-4,6-dioxo-N-propyl-tetrahydropyridazine-1(2H)-carboxamide]
100%: mortality at 50 ppm [2] | mortality at 500 ppm [2]

CSC(Nc1ccc(F)cc1)=C1C(=O)CN(c2ccc(C#N)nc2)N(C)C1=O [Compound No. 1-197, (4EZ)-5-(4-(((4-fluorophenyl)amino)(methylthio)methylene)-2-methyl-3,5-dioxo-tetrahydropyridazin-1(2H)-yl)picolinonitrile]
100%: mortality at 50 ppm [2] | mortality at 500 ppm [2] | mortality at 50 ppm [3] | mortality at 500 ppm [3]
